Measured values published in patent US8952157B2, “Apoptosis-inducing agents for the treatment of cancer and immune and autoimmune diseases” (AbbVie Inc., priority 2008, dated 2015).

Target: GST-Bcl-2 (Homo sapiens (Human), UniProt P10415)
Test: Time Resolved-Fluorescence Resonance Energy Transfer (TR-FRET) Bcl-2 binding assay
Conditions: GST-Bcl-2 1 nM, F-Bak peptide probe 100 nM, Tb-anti-GST antibody 1 nM; Ki by Wang's equation
In short: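 Ki values derived from TR-FRET displacement of F-Bak peptide from GST-Bcl-2, detected with Tb-labelled anti-GST antibody (ex 340, em 520/495 nm). Compound dilution series started at 50 μM (2× starting concentration); room-temperature incubation 3 hours.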

GST-Bcl-2, sequence (P10415 whole entry): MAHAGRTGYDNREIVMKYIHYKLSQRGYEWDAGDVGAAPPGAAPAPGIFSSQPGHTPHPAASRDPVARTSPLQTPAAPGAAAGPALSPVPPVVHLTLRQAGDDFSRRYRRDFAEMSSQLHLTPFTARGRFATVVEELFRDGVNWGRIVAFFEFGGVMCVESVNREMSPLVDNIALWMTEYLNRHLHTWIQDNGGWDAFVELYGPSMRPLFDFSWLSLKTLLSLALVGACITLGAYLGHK

## 2-(2-chlorophenoxy)-4-(4-{([2-(4-chlorophenyl)-4,4-dimethylcyclohex-1-en-1-yl]methyl}piperazin-1-yl)-N-({4-[(1,4-dimethylpiperidin-4-yl)amino]-3-nitrophenyl}sulfonyl)benzamide [Example 168]
  Ki: 28.3 nM

## CN(C)CCCNc1ccc(S(=O)(=O)NC(=O)c2ccc(N3CCN(CC4=C(c5ccc(Cl)cc5)CC(C)(C)CC4)CC3)cc2Oc2ccccc2Cl)cc1[N+](=O)[O-] [Example 179, 2-(2-chlorophenoxy)-4-(4-{[2-(4-chlorophenyl)-4,4-dimethylcyclohex-1-en-1-yl]methyl}piperazin-1-yl)-N-[(4-{[3-(dimethylamino)propyl]amino}-3-nitrophenyl)sulfonyl]benzamide]
  Ki: 0.036 nM

## CC1(C)CCC(CN2CCN(c3ccc(C(=O)NS(=O)(=O)c4ccc(NCC5CCC(O)CC5)c([N+](=O)[O-])c4)c(Oc4cnc(N)c(Cl)c4)c3)CC2)=C(c2ccc(Cl)cc2)C1 (centres unmarked) [Example 386, 2-[(6-amino-5-chloropyridin-3-yl)oxy]-4-(4-{[2-(4-chlorophenyl)-4,4-dimethylcyclohex-1-en-1-yl]methyl}piperazin-1-yl)-N-[(4-{[(4-hydroxycyclohexyl)methyl]amino}-3-nitrophenyl)sulfonyl]benzamide]
  Ki: < 0.01 nM

## CC1(C)CCC(CN2CCN(c3ccc(C(=O)NS(=O)(=O)c4ccc(NCCCN5CCOCC5)c(S(=O)(=O)C(F)(F)F)c4)c(Oc4cnc(N)c(Cl)c4)c3)CC2)=C(c2ccc(Cl)cc2)C1 [Example 347, 2-[(6-amino-5-chloropyridin-3-yl)oxy]-4-(4-{[2-(4-chlorophenyl)-4,4-dimethylcyclohex-1-en-1-yl]methyl}piperazin-1-yl)-N-({4-[(3-morpholin-4-ylpropyl)amino]-3-[(trifluoromethyl)sulfonyl]phenyl}sulfonyl)benzamide]
  Ki: 0.377 nM

## CN(C)c1cccc(Oc2cc(N3CCN(Cc4ccccc4-c4ccc(Cl)cc4)CC3)ccc2C(=O)NS(=O)(=O)c2ccc(NCC3CCOCC3)c([N+](=O)[O-])c2)c1 [Example 21, 4-(4-((4′-chloro-1,1′-biphenyl-2-yl)methyl)piperazin-1-yl)-2-(3-(dimethylamino)phenoxy)-N-((3-nitro-4-((tetrahydro-2H-pyran-4-ylmethyl)amino)phenyl)sulfonyl)benzamide]
  Ki: 14.1 nM

## CC1(C)CC(c2ccc(Cl)cc2)=C(CN2CCN(c3ccc(C(=O)NS(=O)(=O)c4cnc(OCC5CCOCC5)c(C#N)c4)c(Oc4cc5cc[nH]c5cc4F)c3)CC2)CO1 [Example 298, 4-(4-{[4-(4-chlorophenyl)-6,6-dimethyl-5,6-dihydro-2H-pyran-3-yl]methyl}piperazin-1-yl)-N-{[5-cyano-6-(tetrahydro-2H-pyran-4-ylmethoxy)pyridin-3-yl]sulfonyl}-2-[(6-fluoro-1H-indol-5-yl)oxy]benzamide]
  Ki: 0.054 nM

## CC(=O)Nc1ccc(Oc2cc(N3CCN(CC4=C(c5ccc(Cl)cc5)CC(C)(C)CC4)CC3)ccc2C(=O)NS(=O)(=O)c2ccc(NCC3CCOCC3)c([N+](=O)[O-])c2)cn1 [Example 355, 2-{[6-(acetylamino)pyridin-3-yl]oxy}-4-(4-{[2-(4-chlorophenyl)-4,4-dimethylcyclohex-1-en-1-yl]methyl}piperazin-1-yl)-N-({3-nitro-4-[(tetrahydro-2H-pyran-4-ylmethyl)amino]phenyl}sulfonyl)benzamide]
  Ki: 9.57 nM

## CN1CCC(Nc2ccc(C(=O)NS(=O)(=O)c3ccc(N4CCN(Cc5ccccc5-c5ccc(Cl)cc5)CC4)cc3Oc3cc(Cl)cc(Cl)c3)cc2[N+](=O)[O-])CC1 [Example 111, N-{[4-{4-[(4′-chloro-1,1′-biphenyl-2-yl)methyl]piperazin-1-yl}-2-(3,5-dichlorophenoxy)phenyl]sulfonyl}-4-[(1-methylpiperidin-4-yl)amino]-3-nitrobenzamide]
  Ki: 17.4 nM

## CC(C)(C)OC(=O)Nc1cccc(Oc2cc(N3CCN(Cc4ccccc4-c4ccc(Cl)cc4)CC3)ccc2C(=O)NS(=O)(=O)c2ccc(NCC3CCOCC3)c([N+](=O)[O-])c2)c1 [Example 85, tert-butyl 3-(5-(4-((4′-chloro-1,1′-biphenyl-2-yl)methyl)piperazin-1-yl)-2-((((3-nitro-4-((tetrahydro-2H-pyran-4-ylmethyl)amino)phenyl)sulfonyl)amino)carbonyl)phenoxy)phenylcarbamate]
  Ki: 5.63 nM

## CC1(C)CCC(CN2CCN(c3ccc(C(=O)NS(=O)(=O)c4ccc(NCC5CCOCC5)c([N+](=O)[O-])c4)c(Oc4ccc(N)c(Cl)c4)c3)CC2)=C(c2ccc(Cl)cc2)C1 [Example 247, 2-(4-amino-3-chlorophenoxy)-4-(4-{[2-(4-chlorophenyl)-4,4-dimethylcyclohex-1-en-1-yl]methyl}piperazin-1-yl)-N-({3-nitro-4-[(tetrahydro-2H-pyran-4-ylmethyl)amino]phenyl}sulfonyl)benzamide]
  Ki: 0.039 nM

## O=C(NS(=O)(=O)c1ccc(NCC2CCOCC2)c([N+](=O)[O-])c1)c1ccc(N2CCN(Cc3ccccc3-c3ccc(Cl)cc3)CC2)cc1Oc1ccc(-n2ccnc2)cc1 [Example 76, 4-(4-((4′-chloro-1,1′-biphenyl-2-yl)methyl)piperazin-1-yl)-2-(4-(1H-imidazol-1-yl)phenoxy)-N-((3-nitro-4-((tetrahydro-2H-pyran-4-ylmethyl)amino)phenyl)sulfonyl)benzamide]
  Ki: 240 nM

## CC(=O)Nc1cccc(Oc2cc(N3CCN(Cc4ccccc4-c4ccc(Cl)cc4)CC3)ccc2C(=O)NS(=O)(=O)c2ccc(NCC3CCOCC3)c([N+](=O)[O-])c2)c1 [Example 17, 2-(3-(acetylamino)phenoxy)-4-(4-((4′-chloro-1,1′-biphenyl-2-yl)methyl)piperazin-1-yl)-N-((3-nitro-4-((tetrahydro-2H-pyran-4-ylmethyl)amino)phenyl)sulfonyl)benzamide]
  Ki: 5.58 nM

## CC1(C)CCC(CN2CCN(c3ccc(C(=O)NS(=O)(=O)c4ccc(NCC5CCOCC5)c([N+](=O)[O-])c4)c(Oc4cc5cc[nH]c5cc4F)c3)CC2)=C(c2ccc(Cl)cc2)C1 [Example 238, 4-(4-{[2-(4-chlorophenyl)-4,4-dimethylcyclohex-1-en-1-yl]methyl}piperazin-1-yl)-2-[(6-fluoro-1H-indol-5-yl)oxy]-N-({3-nitro-4-[(tetrahydro-2H-pyran-4-ylmethyl)amino]phenyl}sulfonyl)benzamide]
  Ki: 0.124 nM

## CN1CCN(Nc2ccc(S(=O)(=O)NC(=O)c3ccc(N4CCN(CC5=C(c6ccc(Cl)cc6)CC(C)(C)CC5)CC4)cc3Oc3cc4cc[nH]c4cc3Cl)cc2[N+](=O)[O-])CC1 [Example 244, 2-[(6-chloro-1H-indol-5-yl)oxy]-4-(4-{[2-(4-chlorophenyl)-4,4-dimethylcyclohex-1-en-1-yl]methyl}piperazin-1-yl)-N-({4-[(4-methylpiperazin-1-yl)amino]-3-nitrophenyl}sulfonyl)benzamide]
  Ki: 1.73 nM

## CN(C)CCc1ccc(Oc2cc(N3CCN(Cc4ccccc4-c4ccc(Cl)cc4)CC3)ccc2C(=O)NS(=O)(=O)c2ccc(NCC3CCOCC3)c([N+](=O)[O-])c2)cc1 [Example 87, 4-(4-((4′-chloro-1,1′-biphenyl-2-yl)methyl)piperazin-1-yl)-2-(4-(2-(dimethylamino)ethyl)phenoxy)-N-((3-nitro-4-((tetrahydro-2H-pyran-4-ylmethyl)amino)phenyl)sulfonyl)benzamide]
  Ki: 264 nM

## CC1(C)CCC(CN2CCN(c3ccc(C(=O)NS(=O)(=O)c4ccc(NCC5CCOCC5)c([N+](=O)[O-])c4)c(Oc4ccccc4-c4ccn[nH]4)c3)CC2)=C(c2ccc(Cl)cc2)C1 [Example 408, 4-(4-{[2-(4-chlorophenyl)-4,4-dimethylcyclohex-1-en-1-yl]methyl}piperazin-1-yl)-N-({3-nitro-4-[(tetrahydro-2H-pyran-4-ylmethyl)amino]phenyl}sulfonyl)-2-[2-(1H-pyrazol-5-yl)phenoxy]benzamide]
  Ki: 1.16 nM

## CN1CCC(Nc2ccc(S(=O)(=O)NC(=O)c3ccc(N4CCN(CC5=C(c6ccc(Cl)cc6)CC(C)(C)CC5)CC4)cc3Oc3ccccc3Cl)cc2S(=O)(=O)C(F)(F)F)CC1 [Example 59, 2-(2-chlorophenoxy)-4-(4-((2-(4-chlorophenyl)-4,4-dimethylcyclohex-1-en-1-yl)methyl)piperazin-1-yl)-N-((4-((1-methylpiperidin-4-yl)amino)-3-((trifluoromethyl)sulfonyl)phenyl)sulfonyl)benzamide]
  Ki: 0.184 nM

## Cc1nc2ccc(Oc3cc(N4CCN(Cc5ccccc5-c5ccc(Cl)cc5)CC4)ccc3C(=O)NS(=O)(=O)c3ccc(NCC4CCOCC4)c([N+](=O)[O-])c3)cc2s1 [Example 23, 4-(4-((4′-chloro-1,1′-biphenyl-2-yl)methyl)piperazin-1-yl)-2-((2-methyl-1,3-benzothiazol-6-yl)oxy)-N-((3-nitro-4-((tetrahydro-2H-pyran-4-ylmethyl)amino)phenyl)sulfonyl)benzamide]
  Ki: 8.27 nM

## CC1(C)CCC(CN2CCN(c3ccc(C(=O)NS(=O)(=O)c4ccc(NCC5(F)CCOCC5)c([N+](=O)[O-])c4)c(Oc4cnc(N)c(Cl)c4)c3)CC2)=C(c2ccc(Cl)cc2)C1 [Example 363, 2-[(6-amino-5-chloropyridin-3-yl)oxy]-4-(4-{[2-(4-chlorophenyl)-4,4-dimethylcyclohex-1-en-1-yl]methyl}piperazin-1-yl)-N-[(4-{[(4-fluorotetrahydro-2H-pyran-4-yl)methyl]amino}-3-nitrophenyl)sulfonyl]benzamide]
  Ki: < 0.01 nM

## CNc1ncc(Oc2cc(N3CCN(CC4=C(c5ccc(Cl)cc5)CC(C)(C)CC4)CC3)ccc2C(=O)NS(=O)(=O)c2ccc(NCC3CCOCC3)c([N+](=O)[O-])c2)cc1Cl [Example 377, 2-{[5-chloro-6-(methylamino)pyridin-3-yl]oxy}-4-(4-{[2-(4-chlorophenyl)-4,4-dimethylcyclohex-1-en-1-yl]methyl}piperazin-1-yl)-N-({3-nitro-4-[(tetrahydro-2H-pyran-4-ylmethyl)amino]phenyl}sulfonyl)benzamide]
  Ki: 2.32 nM
